Results: patent US9481700B2, “Method for preparing isofagomine and its derivatives” (Amicus Therapeutics, Inc., priority 2007, dated 2016)
Structures can show the parent of a compound that is named as a salt.

Key:
human GCase = target: T1, human GCase (Homo sapiens, UniProt P04062); assay: Phase 1 clinical trials, GCase activity in healthy volunteers; format: in vivo
T1 construct: human GCase in healthy volunteers; endogenous in cells
T1 sequence (P04062 40-536): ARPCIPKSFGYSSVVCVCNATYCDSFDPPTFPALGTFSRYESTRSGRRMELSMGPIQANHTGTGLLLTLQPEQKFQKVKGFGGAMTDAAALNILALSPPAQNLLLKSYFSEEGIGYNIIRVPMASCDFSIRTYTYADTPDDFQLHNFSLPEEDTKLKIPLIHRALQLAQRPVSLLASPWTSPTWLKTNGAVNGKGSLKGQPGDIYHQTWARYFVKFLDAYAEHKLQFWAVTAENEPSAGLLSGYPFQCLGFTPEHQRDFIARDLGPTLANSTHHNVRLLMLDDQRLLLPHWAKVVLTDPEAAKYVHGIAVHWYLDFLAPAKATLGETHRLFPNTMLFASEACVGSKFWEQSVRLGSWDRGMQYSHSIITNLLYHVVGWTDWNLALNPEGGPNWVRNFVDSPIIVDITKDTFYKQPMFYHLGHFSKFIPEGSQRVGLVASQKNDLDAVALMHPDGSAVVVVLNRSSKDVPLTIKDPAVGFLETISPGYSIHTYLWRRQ
From the text: (§1) In the absence of the “pharmacological chaperone,” the mutated enzyme protein misfolds in the ER (Ishii et al., Biochem. Biophys. Res. Comm. 1996; 220: 812-815), is retarded in its maturation to a final product, and is subsequently degraded by the ER-associated degradation mechanism. Homozygous mutant GCase is associated with the lysosomal storage disease Gaucher disease.

GCase [1] = assay: Phase 2 clinical trials, GCase activity in Gaucher patients expressing certain missense mutations; format: in vivo, human; conditions: Gaucher patients expressing certain missense mutations that create misfolded GCase
From the text: as §1

GCase [2] = assay: Mouse model of Gaucher disease expressing mutations in the Gba gene; conditions: in vivo, unpublished data
From the text: as §1

mutant GCase = conditions: in vitro, fibroblasts from Gaucher patients; cited from earlier work

Compound | increase of the activity of human GCase (human GCase) | GCase activity (GCase [1]) | GCase activity (GCase [2]) | phenotype (GCase [2]) | activity of mutant GCase (mutant GCase)
OC[C@H]1CNC[C@@H](O)[C@@H]1O [IFG tartrate] | up to 3.5 fold | increase in GCase activity |  |  | 
OC[C@H]1CNC[C@@H](O)[C@@H]1O [IFG, (3R,4R,5R)-3,4-dihydroxy-5-hydroxymethyl-piperidine] |  |  | increases GCase activity | improves the phenotype | increase the activity of mutant GCase
